# In US10125138B2, “Triazolotriazinone derivatives having activity a s herbicides” (Syngenta Participations AG, priority 2015, dated 2018):
# Experiments:
# Format in all cases: in vivo
# Conditions in all cases: 1000 g/h, evaluated after 13 days, five point scale
# [1] = system: Setaria faberi (SETFA); assay: Post-emergence glasshouse herbicide test, Setaria faberi
# Experimental: (§1) Seeds of a variety of test species are sown in standard soil in pots (Lolium perenne (LOLPE), Solanum nigrum (SOLNI), Amaranthus retoflexus (AMARE), Setaria faberi (SETFA), Echinochloa crus-galli (ECHCG), Ipomoea hederacea (IPOHE)). After cultivation for one day (pre-emergence) or after 8 days cultivation (post-emergence) under controlled conditions in a glasshouse (at 24/16° C., day/night; 14 hours light; 65% humidity), the plants are sprayed with an aqueous spray solution derived from the formulation of the technical active ingredient in acetone/water (50:50) solution containing 0.5% Tween 20 (polyoxyethelyene sorbitan monolaurate, CAS RN 9005-64-5). […] The test plants are then grown in a glasshouse under controlled conditions in a glasshouse (at 24/16° C., day/night; 14 hours light; 65% humidity) and watered twice daily. After 13 days for pre and post-emergence, the test is evaluated for the percentage damage caused to the plant. The biological activities are shown in the following table on a five point scale (5=80-100%; 4=60-79%; 3=40-59%; 2=20-39%; 1=0-19%).
# [2] = system: Lolium perenne (LOLPE); assay: Post-emergence glasshouse herbicide test, Lolium perenne
# Experimental: as §1
# [3] = system: Ipomoea hederacea (IPOHE); assay: Pre-emergence glasshouse herbicide test, Ipomoea hederacea
# Experimental: as §1
# [4] = system: Setaria faberi (SETFA); assay: Pre-emergence glasshouse herbicide test, Setaria faberi
# Experimental: as §1
# [5] = system: Ipomoea hederacea (IPOHE); assay: Post-emergence glasshouse herbicide test, Ipomoea hederacea
# Experimental: as §1
# [6] = system: Solanum nigrum (SOLNI); assay: Post-emergence glasshouse herbicide test, Solanum nigrum
# Experimental: (§2) Seeds of a variety of test species are sown in standard soil in pots (Lolium perenne (LOLPE), Solanum nigrum (SOLNI), Amaranthus retoflexus (AMARE), Setaria faberi (SETFA), Echinochloa crus-galli (ECHCG), Ipomoea hederacea (IPOHE)). After cultivation for one day (pre-emergence) or after 8 days cultivation (post-emergence) under controlled conditions in a glasshouse (at 24/16° C., day/night; 14 hours light; 65% humidity), the plants are sprayed with an aqueous spray solution derived from the formulation of the technical active ingredient in acetone/water (50:50) solution containing 0.5% Tween 20 (polyoxyethelyene sorbitan monolaurate, CAS RN 9005-64-5). Compounds are applied at 1000 g/h. The test plants are then grown in a glasshouse under controlled conditions in a glasshouse (at 24/16° C., day/night; 14 hours light; 65% humidity) and watered twice daily. After 13 days for pre and post-emergence, the test is evaluated for the percentage damage caused to the plant. The biological activities are shown in the following table on a five point scale (5=80-100%; 4=60-79%; 3=40-59%; 2=20-39%; 1=0-19%).
# [7] = system: Solanum nigrum (SOLNI); assay: Pre-emergence glasshouse herbicide test, Solanum nigrum
# Experimental: as §2
# [8] = system: Amaranthus retoflexus (AMARE); assay: Pre-emergence glasshouse herbicide test, Amaranthus retoflexus
# Experimental: as §1
# [9] = system: Echinochloa crus-galli (ECHCG); assay: Post-emergence glasshouse herbicide test, Echinochloa crus-galli
# Experimental: as §1
# [10] = system: Amaranthus retoflexus (AMARE); assay: Post-emergence glasshouse herbicide test, Amaranthus retoflexus
# Experimental: as §1
# [11] = system: Echinochloa crus-galli (ECHCG); assay: Pre-emergence glasshouse herbicide test, Echinochloa crus-galli
# Experimental: as §1
# [12] = system: Lolium perenne (LOLPE); assay: Pre-emergence glasshouse herbicide test, Lolium perenne
# Experimental: as §1
Structure (SMILES),"percentage damage caused to the plant, POST Application SETFA [1]","percentage damage caused to the plant, POST Application LOLPE [2]","percentage damage caused to the plant, PRE Application IPOHE [3]","percentage damage caused to the plant, PRE Application SETFA [4]","percentage damage caused to the plant, POST Application IPOHE [5]","percentage damage caused to the plant, POST Application SOLNI [6]","percentage damage caused to the plant, PRE Application SOLNI [7]","percentage damage caused to the plant, PRE Application AMARE [8]","percentage damage caused to the plant, POST Application ECHCG [9]","percentage damage caused to the plant, POST Application AMARE [10]","percentage damage caused to the plant, PRE Application ECHCG [11]","percentage damage caused to the plant, PRE Application LOLPE [12]"
Cn1nnnc1NC(=O)c1nn2cnn(-c3ccccc3)c2nc1=O [Compound 1.001],5 (5=80-100%),3 (3=40-59%),4 (4=60-79%),5 (5=80-100%),5 (5=80-100%),5 (5=80-100%),5 (5=80-100%),5 (5=80-100%),5 (5=80-100%),5 (5=80-100%),5 (5=80-100%),3 (3=40-59%)
Cn1nnnc1NC(=O)c1nn2cnn(-c3ccc(F)cc3)c2nc1=O [Compound 1.002],5 (5=80-100%),5 (5=80-100%),5 (5=80-100%),5 (5=80-100%),5 (5=80-100%),5 (5=80-100%),5 (5=80-100%),5 (5=80-100%),5 (5=80-100%),5 (5=80-100%),5 (5=80-100%),4 (4=60-79%)
COc1ccc(-n2ncn3nc(C(=O)Nc4nnnn4C)c(=O)nc23)cc1 [Compound 1.003],5 (5=80-100%),4 (4=60-79%),5 (5=80-100%),5 (5=80-100%),5 (5=80-100%),5 (5=80-100%),5 (5=80-100%),5 (5=80-100%),5 (5=80-100%),5 (5=80-100%),5 (5=80-100%),4 (4=60-79%)
CCCn1ncn2nc(C(=O)Nc3nnnn3C)c(=O)nc12 [Compound 1.007],5 (5=80-100%),3 (3=40-59%),4 (4=60-79%),5 (5=80-100%),5 (5=80-100%),5 (5=80-100%),5 (5=80-100%),5 (5=80-100%),5 (5=80-100%),5 (5=80-100%),5 (5=80-100%),4 (4=60-79%)
Cn1nnnc1NC(=O)c1nn2cnn(CCCC(F)(F)F)c2nc1=O [Compound 1.011],5 (5=80-100%),3 (3=40-59%),4 (4=60-79%),5 (5=80-100%),5 (5=80-100%),4 (4=60-79%),4 (4=60-79%),5 (5=80-100%),5 (5=80-100%),5 (5=80-100%),4 (4=60-79%),2 (2=20-39%)
